Like-named read-outs stand apart in the source and are kept apart here.
Legend:
[1] = log P by HPLC on reversed-phase (C18) columns, OECD Guideline 117; format: physicochemical; conditions: for chromatographic logP: reversed-phase (C18) HPLC column
Experimental: The log P values were determined in accordance with OECD Guideline 117 (EC Directive 92/69/EEC) by HPLC (high-performance liquid chromatography) using reversed-phase (RP) columns (C18), by the following methods:
[a] The LC-MS determination in the acidic range was carried out at pH 2.7 with 0.1% aqueous formic acid and acetonitrile (contains 0.1% formic acid) as mobile phases; linear gradient from 10% acetonitrile to 95% acetonitrile.
[b] LC-MS determination in the neutral range was carried out at pH 7.8 with 0.001 molar aqueous ammonium hydrogencarbonate solution and acetonitrile as mobile phases; linear gradient from 10% acetonitrile to 95% acetonitrile.

Myzus persicae [2] = test: Myzus persicae - oral test; format: in vivo; conditions: for pest or weed control at 20 ppm: Myzus persicae, po, 120 h, read-out: efficacy
Experimental: Solvent: 100 parts by weight of acetone
To produce a suitable preparation of active compound, 1 part by weight of active compound is dissolved using the specified parts by weight of solvent and made up with water until the desired concentration is attained.
50 μl of the active compound preparation are transferred into microtitre plates and made up to a final volume of 200 μl with 150 μl of IPL41 insect medium (33%+15% sugar). Subsequently, the plates are sealed with parafilm, which a mixed population of green peach aphids (Myzus persicae) within a second microtitre plate is able to puncture and imbibe the solution through it.
After 5 days, the efficacy in % is determined. 100% means that all the aphids have been killed; 0% means that no aphids have been killed.

Myzus persicae [3] = test: Myzus persicae - spray test (Chinese cabbage leaf discs); format: in vivo; conditions: for pest or weed control at 500 g/ha: Myzus persicae, foliar, read-out: efficacy
Experimental: Myzus persicae—Spray Test
Solvent: 78 parts by weight of acetone • • 1.5 parts by weight of dimethylformamide
Emulsifier: alkylaryl polyglycol ether
To produce a suitable active compound preparation, 1 part by weight of active compound is dissolved using the stated parts by weight of solvent and made up with water containing an emulsifier concentration of 1000 ppm until the desired concentration is attained. To produce further test concentrations, the formulation is diluted with emulsifier-containing water.
Discs of Chinese cabbage leaves (Brassica pekinensis) infested by all stages of the green peach aphid (Myzus persicae) are sprayed with an active ingredient formulation of the desired concentration.
After 5-6 days, the efficacy in % is determined. 100% means that all the aphids have been killed; 0% means that no aphids have been killed.

[4] = acidic range, pH 2.7, 0.1% aqueous formic acid/acetonitrile
[5] = neutral range, pH 7.8, aqueous ammonium hydrogencarbonate/acetonitrile
[6] = application rate 20 ppm, after 5 days
[7] = application rate 500 g/ha, after 5-6 days
[8] = acidic range, pH 2.7, 0.1% aqueous formic acid/acetonitrile, read-out: logP[a]
[9] = neutral range, pH 7.8, aqueous ammonium hydrogencarbonate/acetonitrile, read-out: logP[n]

| Structure (SMILES) | logP[a] [1, 4] | logP[n] [1, 5] | efficacy (Myzus persicae [2]; [6]) [%] | efficacy (Myzus persicae [3]; [7]) [%] | also measured |
| --- | --- | --- | --- | --- | --- |
| CN(C(=O)c1cnc(Cn2ncn(C)c2=O)n1C)c1cccnc1 [Example I-1-70] | – | 0.37 | – | – | – |
| CN(C(=O)c1cnc(C(O)c2ccc(Cl)c(Cl)c2)n1C)c1cccnc1 (racemic) [Example I-1-16] | 1.42 | 1.87 | 100 | 100 | – |
| CC(C)CS(=O)(=O)Cc1ncc(C(=O)N(C)c2ccc[n+]([O-])c2)n1C [Example I-1-55, 2-[(Isobutylsulphonyl)methyl]-N,1-dimethyl-N-(1-oxidopyridin-3-yl)-1H-imidazole-5-carboxamide] | – | – | – | – | chromatographic logP [1, 8]: 0.68; chromatographic logP [1, 9]: 0.77 |
| CN(C(=O)c1cnc(CCl)n1C)c1cccnc1 [III-1-1, 2-(Chloromethyl)-N,1-dimethyl-N-(pyridin-3-yl)-1H-imidazole-5-carboxamide] | – | – | – | – | chromatographic logP [1, 9]: 0.89 |
| CN(C(=O)c1cnc(COCc2ccccc2)n1C)c1cccnc1 [Example I-1-25] | 1.10 | 1.63 | 100 | 90 | – |
| C=Cc1ncc(C(=O)N(CC)c2cccnc2)n1C [Example I-1-56] | 0.18 | 1.10 | 90 | 90 | – |
| CN(C(=O)c1cnc(C(C)(C)O)n1C)c1cccnc1 [Example I-1-10, 2-(2-Hydroxypropan-2-yl)-N,1-dimethyl-N-(pyridin-3-yl)-1H-imidazole-5-carboxamide] | – | – | – | – | chromatographic logP [1, 9]: 0.57; pest or weed control at 20 ppm (Myzus persicae [2]): 70%; pest or weed control at 500 g/ha (Myzus persicae [3]): 90% |
| CN(C(=O)c1cnc(C#Cc2ccccc2)n1C)c1cccnc1 [IV-1-1, N,1-Dimethyl-2-(phenylethinyl)-N-(pyridin-3-yl)-1H-imidazole-5-carboxamide] | – | – | – | – | chromatographic logP [1, 8]: 1.86; chromatographic logP [1, 9]: 1.98 |
| CN(C(=O)c1cnc(CCc2ccccc2)n1C)c1cccnc1 [Example I-1-5, N,1-Dimethyl-2-(phenylethyl)-N-(pyridin-3-yl)-1H-imidazole-5-carboxamide] | – | – | – | – | chromatographic logP [1, 8]: 0.66; chromatographic logP [1, 9]: 1.58; pest or weed control at 20 ppm (Myzus persicae [2]; [6]): 100%; pest or weed control at 500 g/ha (Myzus persicae [3]; [7]): 100% |
| CN(C(=O)c1cnc(CO)n1C)c1cccnc1 [Example I-1-7, 2-(Hydroxymethyl)-N,1-dimethyl-N-(pyridin-3-yl)-1H-imidazole-5-carboxamide] | – | – | – | – | chromatographic logP [1, 9]: 0.28; pest or weed control at 20 ppm (Myzus persicae [2]; [6]): 100%; pest or weed control at 500 g/ha (Myzus persicae [3]; [7]): 100% |
| CC(C)CCC(O)c1ncc(C(=O)N(C)c2cccnc2)n1C (racemic) [Example I-1-61] | 0.92 | 1.53 | 100 | 90 | – |
| CN(C(=O)c1cnc(C(O)c2ccc(Cl)cc2)n1C)c1cccnc1 (racemic) [Example I-1-15] | 1.11 | 1.56 | 100 | 100 | – |
| C=Cc1ncc(C(=O)N(C)c2cccnc2)n1C [Example I-1-6, N,1-Dimethyl-N-(pyridin-3-yl)-2-vinyl-1H-imidazole-5-carboxamide] | – | – | – | – | pest or weed control at 20 ppm (Myzus persicae [2]; [6]): 100%; pest or weed control at 500 g/ha (Myzus persicae [3]; [7]): 100% |
| CN(C(=O)c1cnc(Cn2ncn(C3CC3)c2=O)n1C)c1cccnc1 [Example I-1-69] | 0.22 | 0.59 | – | 70 | – |
| CN(C(=O)c1cnc(C(O)c2cccc(Cl)c2)n1C)c1cccnc1 (racemic) [Example I-1-14] | 1.01 | 1.56 | 100 | 90 | – |
| CN(C(=O)c1cnc(C(O)c2ccccc2)n1C)c1cccnc1 (centres unmarked) [Example I-1-12, 2-[Hydroxy(phenyl)methyl]-N,1-dimethyl-N-(pyridin-3-yl)-1H-imidazole-5-carboxamide] | – | – | – | – | chromatographic logP [1, 8]: 0.52; chromatographic logP [1, 9]: 1.23; pest or weed control at 20 ppm (Myzus persicae [2]): 100%; pest or weed control at 500 g/ha (Myzus persicae [3]): 90% |
| CN(C(=O)c1cnc(C(O)c2cccnc2)n1C)c1cccnc1 (racemic) [Example I-1-18] | – | 0.60 | 100 | 90 | – |
| CN(C(=O)c1cnc(Cc2ccccc2)n1C)c1cccnc1 [Example I-1-3, 2-Benzyl-N,1-dimethyl-N-(pyridin-3-yl)-1H-imidazole-5-carboxamide] | – | – | – | – | chromatographic logP [1, 8]: 0.64; chromatographic logP [1, 9]: 1.48; pest or weed control at 20 ppm (Myzus persicae [2]; [6]): 90%; pest or weed control at 500 g/ha (Myzus persicae [3]; [7]): 100% |
| CN(C(=O)c1cnc(C(O)c2cnccc2Cl)n1C)c1cccnc1 (racemic) [Example I-1-20] | 0.59 | 1.07 | 100 | 90 | – |
| CN(C(=O)c1cnc(C(O)C(Cl)(Cl)Cl)n1C)c1cccnc1 (centres unmarked) [Example I-1-68] | 1.02 | 1.21 | – | – | – |
| CN(C(=O)c1cnc(C(O)c2ccccc2Cl)n1C)c1cccnc1 (racemic) [Example I-1-13] | 0.85 | – | 100 | 100 | – |
| COCc1ncc(C(=O)N(C)c2cccnc2)n1C [Example I-1-22, 2-(Methoxymethyl)-N,1-dimethyl-N-(pyridin-3-yl)-1H-imidazole-5-carboxamide] | – | – | – | – | chromatographic logP [1, 9]: 0.63; pest or weed control at 20 ppm (Myzus persicae [2]; [6]): 100%; pest or weed control at 500 g/ha (Myzus persicae [3]; [7]): 100% |
| CN(C(=O)c1cnc(C(O)c2ncccn2)n1C)c1cccnc1 (racemic) [Example I-1-21] | – | 0.40 | 100 | 100 | – |
| CN(C(=O)c1cnc(COc2cccc(Cl)c2)n1C)c1cccnc1 [Example I-1-24] | 1.69 | 2.02 | 90 | 100 | – |
| CN(C(=O)c1cnc(C(O)c2ccccn2)n1C)c1cccnc1 (racemic) [Example I-1-17] | 0.02 | 0.71 | 100 | 100 | – |
| CN(C(=O)c1cnc(C(O)c2ccncc2)n1C)c1cccnc1 (racemic) [Example I-1-19] | – | 0.54 | 100 | 90 | – |
| CN(C(=O)c1cnc(C(OCC(F)(F)F)C(F)(F)F)n1C)c1cccnc1 (centres unmarked) [Example I-1-67, N,1-Dimethyl-N-(pyridin-3-yl)-2-[2,2,2-trifluoro-1-(2,2,2-trifluoroethoxy)ethyl]-1H-imidazole-5-carboxamide] | – | – | – | – | chromatographic logP [1, 8]: 1.72; chromatographic logP [1, 9]: 1.86; pest or weed control at 500 g/ha (Myzus persicae [3]; [7]): 70% |

Now from value to compound, other results behind:

| logP[a] [1, 4] | logP[n] [1, 5] | Structure (SMILES) | efficacy (Myzus persicae [2]; [6]) [%] | efficacy (Myzus persicae [3]; [7]) [%] | also measured |
| --- | --- | --- | --- | --- | --- |
| 0.84 | 1.36 | CN(C(=O)c1cnc(COCC(F)(F)F)n1C)c1cccnc1 [Example I-1-63] | 100 | 90 | – |
| – | 1.08 | C/C=C/c1ncc(C(=O)N(C)c2cccnc2)n1C [Example I-1-58] | – | 90 | – |
| 0.18 | – | CC(C)C(O)c1ncc(C(=O)N(C)c2cccnc2)n1C (racemic) [Example I-1-11] | 100 | 90 | – |
| −0.16 | 0.63 | CCN(C(=O)c1cnc(CO)n1C)c1cccnc1 [Example I-1-8] | 90 | – | – |
| 0.42 | 1.20 | CC(C)OCc1ncc(C(=O)N(C)c2cccnc2)n1C [Example I-1-65] | 100 | 90 | – |
| – | 0.61 | Cn1c(C(=O)N(c2cccnc2)C2CC2)cnc1CO [Example I-1-66] | 70 | – | – |
| – | 0.68 | CN(C(=O)c1cnc(Cc2ncccn2)n1C)c1cccnc1 [Example I-1-4] | 100 | 100 | – |
| 0.18 | 0.92 | CCOCc1ncc(C(=O)N(C)c2cccnc2)n1C [Example I-1-64] | 100 | 100 | – |
| – | 1.11 | C/C=C\c1ncc(C(=O)N(C)c2cccnc2)n1C [Example I-1-59] | – | 90 | – |
| 0.67 | 1.29 | CN(C(=O)c1cnc(COCC2CC2)n1C)c1cccnc1 [Example I-1-23] | 100 | 100 | – |
| – | 0.45 | CC(O)c1ncc(C(=O)N(C)c2cccnc2)n1C (racemic) [Example I-1-9] | 100 | 100 | – |
| 0.10 | 1.05 | C=C(C)c1ncc(C(=O)N(C)c2cccnc2)n1C [Example I-1-57] | – | 90 | – |

— patent US10689365B2, “Substituted 2-alkylimidazolylcarboxamides as pesticides” (Bayer CropScience Aktiengesellschaft, priority 2016, dated 2020)
